Counter-ions that a name gives are not always drawn.
Columns and labels:
Format in all cases: biochemical
Details in all cases: RB Protein 3 μM substrate, 33P-ATP 1 μM, 10-dose IC50 mode, 3-fold dilution starting at 0.1 μM
CDK4/cyclin D1 = CDK4/cyclin D1 (Homo sapiens, UniProt P11802); assay: Radiometric 33P-ATP filter-binding kinase assay, CDK4/cyclin D1
Experimental: (§1) CDK4/cyclin D1, CDK4/cyclin D3, CDK6/cyclin D1, and CDK6/cyclin D3 were added to freshly prepared substrate solution (RB Protein, 3 μM) which was in freshly made reaction buffer (20 mM Hepes (pH 7.5), 10 mM MgCl2, 1 mM EGTA, 0.02% Brij35, 0.02 mg/mL BSA, 0.1 mM Na3VO4, 2 mM DTT, 1% DMSO) and gently mixed, respectively. Compound 1.HCl was tested in a 10-dose IC50 mode with 3-fold dilution starting at 0.1 μM. Compound 1.HCl was prepared and diluted in DMSO and was delivered into the kinases/substrate reaction mixture by Acoustic technology (Echo550; nanoliter range), then incubated for 20 min at room temperature. Then 33P-ATP (1 μM) was added into the reaction mixture to initiate the reaction. The kinase reaction was incubated at room temperature for 2 hours. The reactions were spotted onto P81 ion-exchange paper and radioactivity was detected by filter-binding method. The kinase activity data were expressed as the percent remaining kinase activity in test samples compared to vehicle (Dimethyl Sulfoxide) reactions. […] HCl were determined for all 4 kinases: CDK4/cyclin D1, CDK4/cyclin D3, CDK6/cyclin D1, and CDK6/cyclin D3 and are shown in Table 2, as compared with those of ethylated counterpart, namely N-(5-((4-ethylpiperazin-1-yl)methyl)pyridin-2-yl)-5-fluoro-4-(3-isopropyl-2-methyl-2H-indazol-5-yl)pyrimidin-2-amine, or compound 37. […]

CDK4/cyclin D3 = CDK4/cyclin D3 (Homo sapiens, UniProt P11802); assay: Radiometric 33P-ATP filter-binding kinase assay, CDK4/cyclin D3
CDK4/cyclin D3, sequence (P11802 whole entry, species assumed): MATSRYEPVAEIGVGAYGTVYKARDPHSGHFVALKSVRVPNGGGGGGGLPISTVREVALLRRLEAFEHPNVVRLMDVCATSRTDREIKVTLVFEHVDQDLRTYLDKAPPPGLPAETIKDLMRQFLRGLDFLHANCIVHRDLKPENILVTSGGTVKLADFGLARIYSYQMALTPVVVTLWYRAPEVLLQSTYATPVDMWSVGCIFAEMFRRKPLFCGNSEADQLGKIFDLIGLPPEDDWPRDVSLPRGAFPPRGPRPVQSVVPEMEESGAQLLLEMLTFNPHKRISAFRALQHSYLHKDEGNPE
CDK4/cyclin D3, sequence (P30281 whole entry partner, species assumed): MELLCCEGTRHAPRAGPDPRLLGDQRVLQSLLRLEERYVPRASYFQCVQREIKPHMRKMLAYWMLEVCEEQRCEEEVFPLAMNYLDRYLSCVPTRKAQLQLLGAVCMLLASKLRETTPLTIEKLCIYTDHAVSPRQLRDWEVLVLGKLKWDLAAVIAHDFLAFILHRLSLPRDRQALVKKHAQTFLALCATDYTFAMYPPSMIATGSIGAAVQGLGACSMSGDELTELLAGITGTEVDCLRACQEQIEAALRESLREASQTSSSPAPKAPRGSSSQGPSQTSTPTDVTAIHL
Experimental: as §1

CDK6/cyclin D1 = CDK6/cyclin D1 (Homo sapiens, UniProt Q00534); assay: Radiometric 33P-ATP filter-binding kinase assay, CDK6/cyclin D1
CDK6/cyclin D1, sequence (Q00534 whole entry, species assumed): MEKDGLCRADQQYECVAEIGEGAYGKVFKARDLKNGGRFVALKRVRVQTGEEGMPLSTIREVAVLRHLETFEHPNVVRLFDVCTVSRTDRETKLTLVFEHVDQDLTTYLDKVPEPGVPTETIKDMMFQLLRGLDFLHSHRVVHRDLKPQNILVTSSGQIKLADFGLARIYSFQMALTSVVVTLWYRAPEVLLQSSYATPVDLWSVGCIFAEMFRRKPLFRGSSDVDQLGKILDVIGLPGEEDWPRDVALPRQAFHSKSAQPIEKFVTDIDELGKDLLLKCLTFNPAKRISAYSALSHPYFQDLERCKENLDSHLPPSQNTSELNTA
CDK6/cyclin D1, sequence (P24385 whole entry partner, species assumed): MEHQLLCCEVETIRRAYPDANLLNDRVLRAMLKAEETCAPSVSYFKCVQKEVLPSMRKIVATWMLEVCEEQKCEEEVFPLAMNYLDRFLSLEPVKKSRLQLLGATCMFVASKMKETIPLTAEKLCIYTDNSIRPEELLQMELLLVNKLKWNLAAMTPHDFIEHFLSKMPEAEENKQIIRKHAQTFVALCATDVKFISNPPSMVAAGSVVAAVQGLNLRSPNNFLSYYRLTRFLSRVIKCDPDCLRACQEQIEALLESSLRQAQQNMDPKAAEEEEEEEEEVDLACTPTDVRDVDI
Experimental: as §1

CDK6/cyclin D3 = CDK6/cyclin D3 (Homo sapiens, UniProt Q00534); assay: Radiometric 33P-ATP filter-binding kinase assay, CDK6/cyclin D3
CDK6/cyclin D3, sequence (Q00534 whole entry, species assumed): as the sequence (Q00534 whole entry, species assumed) above
CDK6/cyclin D3, sequence (P30281 whole entry partner, species assumed): as the sequence (P30281 whole entry partner, species assumed) above
Experimental: as §1

CDK4/cyclin D1, sequence (P11802 whole entry, species assumed): as the sequence (P11802 whole entry, species assumed) above
CDK4/cyclin D1, sequence (P24385 whole entry partner, species assumed): as the sequence (P24385 whole entry partner, species assumed) above

SMILES | IC50 (CDK4/cyclin D1) | IC50 (CDK4/cyclin D3) | IC50 (CDK6/cyclin D1) | IC50 (CDK6/cyclin D3)
CC(C)c1c2cc(-c3nc(Nc4ccc(CN5CCNCC5)cn4)ncc3F)ccc2nn1C [1•HCl, 5-Fluoro-4-(3-isopropyl-2-methyl-2H-indazol-5-yl)-N-(5-(piperazin-1-ylmethyl)pyridin-2-yl)pyrimidin-2-amine hydrochloride] | 0.705 nM | 3.99 nM | 1.11 nM | 25.6 nM
CCN1CCN(Cc2ccc(Nc3ncc(F)c(-c4ccc5nn(C)c(C(C)C)c5c4)n3)nc2)CC1 [Compound 37, N-(5-((4-ethylpiperazin-1-yl)methyl)pyridin-2-yl)-5-fluoro-4-(3-isopropyl-2-methyl-2H-indazol-5-yl)pyrimidin-2-amine] | 1.47 nM | 1.98 nM | 23.8 nM | 5.66 nM

Source: patent US11352341B2, “2H-indazole derivatives as CDK4 and CDK6 inhibitors and therapeutic uses thereof” (Beta Pharma, Inc., priority 2018, dated 2022)
